17 compounds from patent publication US20240158370A1, “CK1 alpha AND DUAL CK1 alpha / GSPT1 DEGRADING COMPOUNDS” (Innovo Therapeutics, Inc., priority 2022, published 2024) can be followed below.

Structures are written as SMILES.

What is called DC50 is the concentration at which degradation of the target reaches its halfway point. High values mean a less potent degrader, low ones a more potent degrader. One may read the EC50 as the concentration giving half of the maximal effect. Lower therefore signals an effect from little substance.

Type in all cases: cell-based
In one test the target is T1, CK1α (Homo sapiens, UniProt P48729+Q96SW2).
T1 construct: CSNK1A1-HiBit KI HEK293(LgBit) Cells; host or cells: HEK293(LgBit) knock-in cells
T1 sequence (P48729 whole entry): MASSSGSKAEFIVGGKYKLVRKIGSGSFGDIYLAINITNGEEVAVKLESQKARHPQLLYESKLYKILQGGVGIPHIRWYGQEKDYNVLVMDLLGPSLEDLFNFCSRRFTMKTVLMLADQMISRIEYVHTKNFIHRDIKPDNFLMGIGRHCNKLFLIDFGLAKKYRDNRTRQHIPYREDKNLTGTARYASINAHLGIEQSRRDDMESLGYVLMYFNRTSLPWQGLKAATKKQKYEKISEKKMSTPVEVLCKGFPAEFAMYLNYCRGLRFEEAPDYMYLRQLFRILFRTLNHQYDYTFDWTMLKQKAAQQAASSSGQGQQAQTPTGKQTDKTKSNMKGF
T1 sequence (Q96SW2 whole entry): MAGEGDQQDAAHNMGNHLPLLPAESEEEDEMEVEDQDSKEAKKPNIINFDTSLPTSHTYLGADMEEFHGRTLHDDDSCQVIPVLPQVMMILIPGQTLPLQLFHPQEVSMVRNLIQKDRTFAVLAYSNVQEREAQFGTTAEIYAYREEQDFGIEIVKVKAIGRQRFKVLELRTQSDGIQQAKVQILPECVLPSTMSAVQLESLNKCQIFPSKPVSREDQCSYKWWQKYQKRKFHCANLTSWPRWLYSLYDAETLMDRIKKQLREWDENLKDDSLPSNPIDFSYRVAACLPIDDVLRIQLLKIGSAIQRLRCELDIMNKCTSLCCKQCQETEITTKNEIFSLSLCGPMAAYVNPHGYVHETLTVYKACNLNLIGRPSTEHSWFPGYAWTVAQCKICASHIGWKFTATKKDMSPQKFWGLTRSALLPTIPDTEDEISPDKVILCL
T1 sequence (Q16531 whole entry partner): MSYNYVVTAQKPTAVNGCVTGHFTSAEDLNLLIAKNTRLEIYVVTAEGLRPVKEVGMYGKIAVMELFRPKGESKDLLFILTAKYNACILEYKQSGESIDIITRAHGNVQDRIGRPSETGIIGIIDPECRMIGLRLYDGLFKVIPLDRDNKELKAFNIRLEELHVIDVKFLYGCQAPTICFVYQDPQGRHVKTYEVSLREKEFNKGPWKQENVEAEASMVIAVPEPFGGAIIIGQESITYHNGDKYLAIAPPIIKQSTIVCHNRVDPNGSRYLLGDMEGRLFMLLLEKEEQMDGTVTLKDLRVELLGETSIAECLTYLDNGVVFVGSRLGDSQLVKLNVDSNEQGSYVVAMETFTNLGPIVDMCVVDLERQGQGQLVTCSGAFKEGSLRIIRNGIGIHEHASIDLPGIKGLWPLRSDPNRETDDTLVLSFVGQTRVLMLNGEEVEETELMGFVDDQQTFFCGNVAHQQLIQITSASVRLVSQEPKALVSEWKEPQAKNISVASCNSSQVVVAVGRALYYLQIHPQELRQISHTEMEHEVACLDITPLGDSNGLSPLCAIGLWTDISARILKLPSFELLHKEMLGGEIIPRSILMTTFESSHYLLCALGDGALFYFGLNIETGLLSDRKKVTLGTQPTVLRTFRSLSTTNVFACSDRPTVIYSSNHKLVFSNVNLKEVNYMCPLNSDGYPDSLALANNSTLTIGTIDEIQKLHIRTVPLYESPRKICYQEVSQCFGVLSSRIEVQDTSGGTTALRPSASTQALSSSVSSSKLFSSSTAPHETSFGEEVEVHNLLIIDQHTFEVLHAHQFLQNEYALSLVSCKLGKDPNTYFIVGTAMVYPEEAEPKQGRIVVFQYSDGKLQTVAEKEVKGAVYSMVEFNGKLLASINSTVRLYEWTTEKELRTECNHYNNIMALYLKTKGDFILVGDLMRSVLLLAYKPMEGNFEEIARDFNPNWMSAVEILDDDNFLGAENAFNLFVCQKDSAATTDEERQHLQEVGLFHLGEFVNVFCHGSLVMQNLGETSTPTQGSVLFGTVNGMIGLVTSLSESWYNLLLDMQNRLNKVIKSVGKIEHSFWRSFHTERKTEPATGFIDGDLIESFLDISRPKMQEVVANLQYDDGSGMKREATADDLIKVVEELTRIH
The experiment in a line: HiBiT degradation assay, CK1α, Procedure A. The procedure, abridged:
(§1)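 Six-hour treatment at 37° C, ten doses between 10 μM and 0.005 μM, then HiBiT lytic luminescence. Fitted DC50 and Ymin.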
(The HiBiT peptide binds its large partner to form an active luciferase.)

In another test the target is GSPT1 (Homo sapiens, UniProt P15170+Q96SW2). The test is described as follows: HiBiT degradation assay, GSPT1, Procedure A. Also on record: HiBit-GSPT1 KI HEK293(LgBit) Cells; host or cells: HEK293(LgBit) knock-in cells. The procedure, abridged:
as §1

The next test relates to Z-138 cells. The test is described as follows: Z-138 Proliferation Assay (Cell Titer-Glo). The settings on record: 72 hours; for Ymin (%): % remaining (percent of DMSO control); for EC50: Homo sapiens, Cell Titer-Glo, 4-parameter curve fit. A digest of the protocol: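 Z-138 cells (4,000 cells/well, IMDM + 10% FBS) exposed 72 h to 10-point 1:2 compound dilutions from 10,000 nM top, 0.1% DMSO. Viability read by CellTiter-Glo luminescence; EC50 from 4-parameter fit of percent of DMSO control.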
Background: In ATP-based viability assays light output follows the ATP content of the culture.

GSPT1, sequence (P15170 whole entry): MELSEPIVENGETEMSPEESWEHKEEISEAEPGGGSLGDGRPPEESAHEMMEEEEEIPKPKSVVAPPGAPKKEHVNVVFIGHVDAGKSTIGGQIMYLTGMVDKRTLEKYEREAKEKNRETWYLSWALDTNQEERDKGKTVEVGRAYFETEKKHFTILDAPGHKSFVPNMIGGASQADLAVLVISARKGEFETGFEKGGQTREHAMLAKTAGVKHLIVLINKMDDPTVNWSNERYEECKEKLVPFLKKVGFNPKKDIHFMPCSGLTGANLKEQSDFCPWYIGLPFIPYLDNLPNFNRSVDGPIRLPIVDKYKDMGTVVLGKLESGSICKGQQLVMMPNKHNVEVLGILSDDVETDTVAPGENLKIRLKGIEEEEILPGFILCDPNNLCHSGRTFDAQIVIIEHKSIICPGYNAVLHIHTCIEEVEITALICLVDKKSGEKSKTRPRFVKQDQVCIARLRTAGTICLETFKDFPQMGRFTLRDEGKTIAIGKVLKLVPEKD
GSPT1, sequence (Q96SW2 whole entry): as the sequence (Q96SW2 whole entry) above
GSPT1, sequence (Q16531 whole entry partner): as the sequence (Q16531 whole entry partner) above

With `O=C1CCC(N2Cc3cc(-c4ncn5c4-c4ccccc4C5)ccc3C2=O)C(=O)N1` (stereo not drawn) [Example 339, 3-(5-(5H-imidazo[5,1-a]isoindol-1-yl)-1-oxoisoindolin-2-yl)piperidine-2,6-dione], on CK1α (six hours incubation), the “CK1α Ymin” value is recorded as “C (C = 0-10% remaining)” and the DC50 is below 25 nM. In addition, at GSPT1 (six hours incubation), the DC50 was below 25 nM and the “GSPT1 Ymin” value was “F (F = >75-100% remaining)”. Besides, in the test on Z-138 cells, the “Ymin (%)” value is listed as “D (0-10% remaining)” and the EC50 lay within 10 to 100 nM.

In the case of `Cn1ncc(-c2ccc3c(c2)CN(C2CCC(=O)NC2=O)C3=O)c1-c1ccc2cc[nH]c2c1` (stereo not drawn) [Example 379], on CK1α (six hours), the “CK1α Ymin” value was “C (C = 0-10% remaining)” and the DC50 was below 25 nM. In addition, on GSPT1 (six hours), the half-maximal degradation concentration (DC50) is at least 25 nM and the “GSPT1 Ymin” value is listed as “F (F = >75-100% remaining)”. In addition, in the test on Z-138 cells, the “Ymin (%)” value was “D (0-10% remaining)” and the EC50 was below 10 nM.

As to `O=C1CCC(N2Cc3cc(-c4cn(C(F)F)c(-c5ccccc5)n4)ccc3C2=O)C(=O)N1` (stereo not drawn) [Example 421, 3-(5-(1-(difluoromethyl)-2-phenyl-1H-imidazol-4-yl)-1-oxoisoindolin-2-yl)piperidine-2,6-dione], on CK1α (six hours), the “CK1α Ymin” value is “C (C = 0-10% remaining)” and the DC50 was below 25 nM. Also, on GSPT1 (six hours), the DC50 was at least 25 nM and the “GSPT1 Ymin” value was “F (F = >75-100% remaining)”. Moreover, in the test with Z-138 cells, the “Ymin (%)” value was “F (>25-50% remaining)” and the EC50 lay in the range of 10 to 100 nM.

Regarding `O=C1CCC(N2Cc3cc(-c4cnn(C(F)F)c4-c4ccccc4)ccc3C2=O)C(=O)N1` (stereo not drawn) [Example 422, 3-(5-(1-(difluoromethyl)-5-phenyl-1H-pyrazol-4-yl)-1-oxoisoindolin-2-yl)piperidine-2,6-dione], at CK1α (six hours), the “CK1α Ymin” value is “D (D = >10- 25% remaining)” and the DC50 is below 25 nM. In addition, at GSPT1 (six hours), the DC50 is below 25 nM and the “GSPT1 Ymin” value is on record as “F (F = >75-100% remaining)”. Moreover, in the test on Z-138 cells, the “Ymin (%)” value is recorded as “D (0-10% remaining)” and the 50% effective concentration (EC50) was in the range of 10 to 100 nM.

For the compound `COc1ccc(-c2c(-c3ccc4c(c3)CN(C3CCC(=O)NC3=O)C4=O)cnn2C(F)F)c(Cl)c1` (stereo not drawn) [Example 518, 3-(5-(5-(2-chloro-4-methoxyphenyl)-1-(difluoromethyl)-1H-pyrazol-4-yl)-1-oxoisoindolin-2-yl)piperidine-2,6-dione], at CK1α (six hours), the “CK1α Ymin” value was “C (C = 0-10% remaining)” and the DC50 was below 25 nM. In addition, at GSPT1 (six hours), the 50% degradation concentration (DC50) was below 25 nM and the “GSPT1 Ymin” value is reported as “F (F = >75-100% remaining)”. Also, in the test with Z-138 cells, the “Ymin (%)” value is on record as “D (0-10% remaining)” and the EC50 lay in the range of 10 to 100 nM.

As to `Cn1nc(-c2ccc3c(c2)CN(C2CCC(=O)NC2=O)C3=O)nc1-c1ccccc1` (stereo not drawn) [Example 519, 3-[5-(1-methyl-5-phenyl-1,2,4-triazol-3-yl)-1-oxo-isoindolin-2-yl]piperidine-2,6-dione], on CK1α (six hours), the “CK1α Ymin” value is “C (C = 0-10% remaining)” and the DC50 is below 25 nM. Further, at GSPT1 (six hours), the DC50 was at least 25 nM and the “GSPT1 Ymin” value is given as “F (F = >75-100% remaining)”. Moreover, in the test with Z-138 cells, the “Ymin (%)” value is given as “E (>10-25% remaining)” and the EC50 is 10 to 100 nM.

As to `Cn1nc(-c2ccc3c(c2)CN(C2CCC(=O)NC2=O)C3=O)cc1C1CCC(F)(F)CC1` (stereo not drawn) [Example 546, 3-(5-(5-(4,4-difluorocyclohexyl)-1-methyl-1H-pyrazol-3-yl)-1-oxoisoindolin-2-yl)piperidine-2,6-dione], at CK1α (six hours), the “CK1α Ymin” value is recorded as “D (D = >10- 25% remaining)” and the DC50 is below 25 nM. On GSPT1 (six hours), the DC50 was at least 25 nM and the “GSPT1 Ymin” value was “F (F = >75-100% remaining)”. Besides, in the test with Z-138 cells, the “Ymin (%)” value was “F (>25-50% remaining)” and the EC50 lay within 10 to 100 nM.

On to `CC(C)n1nc(-c2ccc3c(c2)CN(C2CCC(=O)NC2=O)C3=O)cc1-c1ccccc1` (stereo not drawn) [Example 550, 3-(5-(1-isopropyl-5-phenyl-1H-pyrazol-3-yl)-1-oxoisoindolin-2-yl)piperidine-2,6-dione], for which, on CK1α (six hours), the “CK1α Ymin” value is on record as “C (C = 0-10% remaining)” and the DC50 was below 25 nM. For the same compound, on GSPT1 (six hours), the DC50 was at least 25 nM and the “GSPT1 Ymin” value is “F (F = >75-100% remaining)”. In the test on Z-138 cells, the “Ymin (%)” value was “D (0-10% remaining)” and the EC50 is 10 to 100 nM.

`CC(C)n1nc(-c2ccc3c(c2)CN(C2CCC(=O)NC2=O)C3=O)nc1-c1ccccc1` (stereo not drawn) [Example 553, 3-(5-(1-isopropyl-5-phenyl-1H-1,2,4-triazol-3-yl)-1-oxoisoindolin-2-yl)piperidine-2,6-dione]: at CK1α (six hours), the “CK1α Ymin” value is given as “C (C = 0-10% remaining)” and the DC50 is below 25 nM. For the same compound, on GSPT1 (six hours), the DC50 is at least 25 nM and the “GSPT1 Ymin” value was “F (F = >75-100% remaining)”. For the same compound, in the test on Z-138 cells, the “Ymin (%)” value is recorded as “D (0-10% remaining)” and the half-maximal effective concentration (EC50) lay within 10 to 100 nM.

`Cn1ncc(-c2ccc3c(c2)CN(C2CCC(=O)NC2=O)C3=O)c1C1CCCCC1` (stereo not drawn) [Example 588]: at CK1α (six hours), the “CK1α Ymin” value is given as “E (E = >25-75% remaining)” and the 50% degradation concentration (DC50) was below 25 nM. On GSPT1 (six hours), the DC50 is at least 25 nM and the “GSPT1 Ymin” value is reported as “F (F = >75-100% remaining)”. Also, in the test on Z-138 cells, the “Ymin (%)” value is recorded as “F (>25-50% remaining)” and the EC50 was 10 to 100 nM.

In the case of `Cn1cnc(-c2ccc3c(c2)CN(C2CCC(=O)NC2=O)C3=O)c1C1CCCCC1` (stereo not drawn) [Example 594], on CK1α (six hours), the “CK1α Ymin” value was “C (C = 0-10% remaining)” and the DC50 is below 25 nM. Also, on GSPT1 (six hours), the DC50 is below 25 nM and the “GSPT1 Ymin” value is “E (E = >25-75% remaining)”. Also, in the test with Z-138 cells, the “Ymin (%)” value is “D (0-10% remaining)” and the EC50 was below 10 nM.

For `Cn1nc(-c2ccc3c(c2)CN(C2CCC(=O)NC2=O)C3=O)nc1C1CCC(F)(F)CC1` (stereo not drawn) [Example 606, 3-(5-(5-(4,4-difluorocyclohexyl)-1-methyl-1H-1,2,4-triazol-3-yl)-1-oxoisoindolin-2-yl)piperidine-2,6-dione], at CK1α (six hours), the “CK1α Ymin” value was “E (E = >25-75% remaining)” and the DC50 was at least 25 nM. At GSPT1 (six hours), the DC50 is at least 25 nM and the “GSPT1 Ymin” value is on record as “F (F = >75-100% remaining)”. For the same compound, in the test with Z-138 cells, the “Ymin (%)” value was “F (>25-50% remaining)” and the EC50 lay within 10 to 100 nM.

Turning to `Cn1nc(-c2ccc3c(c2)CN(C2CCC(=O)NC2=O)C3=O)nc1C1CCCCC1` (stereo not drawn) [Example 614, 3-(5-(5-cyclohexyl-1-methyl-1H-1,2,4-triazol-3-yl)-1-oxoisoindolin-2-yl)piperidine-2,6-dione], on CK1α (six hours), the “CK1α Ymin” value is listed as “D (D = >10- 25% remaining)” and the DC50 was at least 25 nM. On GSPT1 (six hours), the DC50 was at least 25 nM and the “GSPT1 Ymin” value is listed as “F (F = >75-100% remaining)”. For the same compound, in the test with Z-138 cells, the “Ymin (%)” value is “F (>25-50% remaining)” and the half-maximal effective concentration (EC50) lay within 10 to 100 nM.

As for `Cc1c(-c2ccc3c(c2)CN(C2CCC(=O)NC2=O)C3=O)nc(C2CCOCC2)n1C` (stereo not drawn) [Example 615, 3-(5-(1,5-dimethyl-2-(tetrahydro-2H-pyran-4-yl)-1H-imidazol-4-yl)-1-oxoisoindolin-2-yl)piperidine-2,6-dione], on CK1α (six hours), the “CK1α Ymin” value is reported as “C (C = 0-10% remaining)” and the DC50 is below 25 nM. Also, at GSPT1 (six hours), the DC50 is below 25 nM and the “GSPT1 Ymin” value is “F (F = >75-100% remaining)”. Also, in the test on Z-138 cells, the “Ymin (%)” value is reported as “E (>10-25% remaining)” and the concentration giving a half-maximal response (EC50) lay in the range of 10 to 100 nM.

With `Cn1nc(-c2ccc3c(c2)CN(C2CCC(=O)NC2=O)C3=O)nc1-c1ccc(C(F)(F)F)cc1` (stereo not drawn) [Example 619, 3-(5-(1-methyl-5-(4-(trifluoromethyl)phenyl)-1H-1,2,4-triazol-3-yl)-1-oxoisoindolin-2-yl)piperidine-2,6-dione], on CK1α (six hours), the “CK1α Ymin” value is reported as “E (E = >25-75% remaining)” and the DC50 is below 25 nM. Further, on GSPT1 (six hours), the DC50 was at least 25 nM and the “GSPT1 Ymin” value was “F (F = >75-100% remaining)”. Besides, in the test with Z-138 cells, the “Ymin (%)” value is recorded as “F (>25-50% remaining)” and the EC50 was in the range of 10 to 100 nM.

`O=C1CCC(N2Cc3cc(-c4nc(-c5ccccc5)n(C(F)F)n4)ccc3C2=O)C(=O)N1` (stereo not drawn) [Example 703, 3-(5-(1-(difluoromethyl)-5-phenyl-1H-1,2,4-triazol-3-yl)-1-oxoisoindolin-2-yl) piperidine-2,6-dione]: at CK1α (six hours), the “CK1α Ymin” value is listed as “D (D = >10- 25% remaining)” and the DC50 was below 25 nM. Also, on GSPT1 (six hours), the DC50 is at least 25 nM and the “GSPT1 Ymin” value is reported as “F (F = >75-100% remaining)”. For the same compound, in the test with Z-138 cells, the “Ymin (%)” value is recorded as “E (>10-25% remaining)” and the half-maximal effective concentration (EC50) is 10 to 100 nM.

`O=C1CCC(N2Cc3cc(-c4nc(-c5ccccc5)n(C5CC5)n4)ccc3C2=O)C(=O)N1` (stereo not drawn) [Example 705, 3-(5-(1-cyclopropyl-5-phenyl-1H-1,2,4-triazol-3-yl)-1-oxoisoindolin-2-yl)piperidine-2,6-dione]: at CK1α (six hours), the “CK1α Ymin” value is listed as “C (C = 0-10% remaining)” and the half-maximal degradation concentration (DC50) is below 25 nM. On GSPT1 (six hours), the DC50 was below 25 nM and the “GSPT1 Ymin” value is “F (F = >75-100% remaining)”. Besides, in the test on Z-138 cells, the “Ymin (%)” value is “E (>10-25% remaining)” and the EC50 lay in the range of 10 to 100 nM.
